Data set [1] is described as follows: Bidirectional transport of silybin across Caco-2 cell monolayers. The class given is in vitro ADME, Human. The settings on record: human. How it is done:
Human colon epithelial cell line (Caco-2) was purchased from American Type Culture Collection (Manassas, VA, United States) and frozen at -80°C. Wild type MDCK II, MDR1-MDCK II, BCRP-MDCK II, and MRP2-MDCK II cells were kindly supplied by the Netherlands Cancer Institute (Amsterdam, Netherlands). Transport study was carried out with Caco-2 cells, and MDCK II cells were transfected using a previously established method with slight modifications ([Yuan et al., 2017]). The Caco-2 cells were cultured at 37°C/5% CO2 in Dulbecco's modified Eagle's medium (DMEM) supplemented with 10% fetal bovine serum, 1% nonessential amino acids, and 1% penicillin-streptomycin. The Caco-2 cells were seeded onto polyester filter membranes in a 12-well Transwell® plate (Corning Costar Co., NY, United States) with 0.6 × 10^5 cells/cm^2. The monolayer cells were used for transport assays between 21 and 23 days. The MDCKII cells were seeded on transwell plates with a density of 2.0 × 10^5 cells/cm^2 and grown for 4-5 days to form a confluent monolayer. Bidirectional transport assays for Caco-2 and MDCK II cells were performed by adding silybin (10 μM) in assay buffer into either the apical (AP; A-to-B) or basolateral (BL; […] For inhibition studies, Caco-2 or MDCK II cell monolayers in both apical and basolateral chambers were preincubated with the inhibitor for 30 min. The fluorescence intensity of the sample collected from the AP or BL side was immediately detected in a 96-well black plate by the Microplate UV/VIS spectrophotometer (TECAN Infinite […], Männedorf, Switzerland). For liquid chromatography tandem-mass spectrometry (LC-MS/MS) analysis, the sample (100 μl) was mixed with methanol (50 μl) containing internal standard (25 ng/ml) and was stored at -80°C. The formula for calculating apparent permeability coefficient (Papp) values is as follows: (1) […] where dQ/dt (mM/s) represents the rate of permeation of the drug across the cells, C0 (mM) refers to the concentration in the donor compartment at time zero calculated from dosing solution, and A (cm^2) refers to the area of the cell monolayer. Papp (B-A) is the Papp value measured in the B to A direction, and Papp (A-B) is the Papp value measured in the A to B direction. The efflux ratio is given as ER = Papp (B to A)/Papp (A to B).
For orientation: Passage across Caco-2 layers is used to estimate intestinal permeability.

Data set [2] can be described thus: Pharmacokinetic study in rats after oral administration. Format: in vivo, SD rats. The settings on record: silybin 50 mg/kg oral; for CL/F / MRT last / Tmax / half-life: male, SD, rat, plasma, po, 50 mg/kg; for CL/F: read-out: CLz/F, free silybin (converted); for MRT last: read-out: MRT(0-t), free silybin; for Tmax: read-out: Tmax, free silybin; for half-life: read-out: t1/2z, free silybin (converted). As for the experimental part: A previously established liquid chromatography-mass spectrometry (LC-MS) method with slight modifications was used to determine the concentrations of all glucuronide and sulfate conjugates of silybin and free silybin in bio-samples (plasma, cell and media) ([Wen et al., 2008]). In brief, a 10 μl aliquot of each sample was enzymatically hydrolyzed with […] (8000 U/ml) and sulfatase (80 U/ml), and the reaction was terminated by adding 40 μl ice-cold acetonitrile containing glacial acetic acid (1%) and internal standard NG (25 ng/ml). After centrifugation at 13,500 rpm for 15 min at 4°C, the supernatant was dried in ice bath by blowing nitrogen. Later, the residues were reconstituted with 60 μl of 30% methanol in water containing 1% ascorbic acid, and an aliquot of 10 μl of final solution after centrifugation was analyzed by LC-MS/MS. In parallel, a 10 μl aliquot of each sample without enzymes was treated with 40 μl ice-cold acetonitrile containing glacial acetic acid (1%) and NG (25 ng/ml) to determine the concentration of free silybin. Therefore, the concentration of total glucuronides and sulfates was estimated based on the difference between the amount of total silybin (after incubation with both glucuronidase and sulfatase) and free silybin (without enzymatic incubation). The method was validated in terms of specificity, recovery, linearity, sensitivity (LLOQ), matrix effect, accuracy, precision, and stability based on the USA Food and Drug Administration (FDA) bioanalytical method validation guidance. The quantitative linear range for silybin A and B was 5 to 12500 ng/ml.
The analysis for the determination of the concentration of silybin and its glucuronides and sulfates was performed on an Agilent HP 1100 LC-MS system (Agilent, CA, United States) with Waters ACQUITY UPLC® BEH C18 Column (1.7 μm, 2.1 × 50 mm, Waters Corp., Ireland) protected by a C18 Security Guard cartridge (4 × 2.0 mm i.d., Phenomenex, Torrance, CA, United States). Silybin A and B were well separated using optimized gradient elution with 0.1% formic acid in water (mobile phase A) and methanol (mobile phase B) at a flow rate of 0.4 ml/min within 10 min at room temperature (22°C). The gradient elution was performed as follows (time: mobile phase B percentage): 0 min: 25%, 6 min: 40%, 6.5 min: 25%.
Mass spectrometry parameters: capillary voltage, -4000 V; drying gas, 9 L/min; drying gas temperature, 325°C; nebulizer pressure, 40 psi; fragment voltage, 35 V; dwell time, 200 ms; scan mode, selective ion monitoring (SIM) with [M-H]^- for silybin (m/z 481), mono-glucuronide (m/z 657), and NG (m/z 271). The LC-MS data were collected by Agilent ChemStation Software.
Male SD rats, weighting 200–250 g, were purchased from the Guangdong Medical Laboratory Animal Center. They were housed as six rats per cage and in a temperature- (21°C) and humidity-controlled (70%) room with a 12 h light/dark cycle with standard diet and water. All animals were allowed to acclimate to the housing conditions for 7 days prior to experimentation. Experimental procedures were approved by the Committee of Guangdong Provincial Hospital of Traditional Chinese Medicine (No # 2017044).
The SD rats were randomly divided into three groups with six rats per group and were given oral administration as follows: (1) silybin at a dosage of 50 mg/kg bodyweight, (2) silybin and baicalein at a dosage of 50 mg/kg each, and (3) baicalein at a dosage of 50 mg/kg body weight. Before the experiment, rats were pre-fasted for 24 h with water ad libitum and were maintained at a temperature of 21°C with 70% relative humidity and a 12 h light/dark cycle. Blood samples were collected via the tail vein (about 0.1 ml) at time intervals of 0, 15, 30, 45, 60, 90, 120, 240, 360, 480, and 720 min after oral administration with a temporary cannula ([Parasuraman et al., 2010]), and the samples were transferred into heparinized micro-centrifuge tubes. […]

Where [3] appears, read: Caco-2, silybin 10 μM, co-treatment with baicalein 5 μM, read-out: efflux ratio.
Setting [4] is: Caco-2 model, silybin alone, read-out: mean efflux ratio.
Where [5] appears, read: with baicalein 50 mg/kg, listed as SBA.
[6] abbreviates: without baicalein, listed as SBA.
[7] abbreviates: with baicalein 50 mg/kg, listed as SBB.

Read-outs that look alike come from different tables or passages of the source.

As usually defined, the Tmax is the time from dosing to the highest level. As to `COc1cc([C@H]2Oc3cc([C@H]4Oc5cc(O)cc(O)c5C(=O)[C@@H]4O)ccc3O[C@@H]2CO)ccc1O` [silybin A], the efflux ratio at 180 min, 10 μM in data set [1] (setting [3]) was determined as 2.38 ± 0.27. Further, the efflux ratio at 180 min, 10 μM in data set [1] (setting [4]) came out at 5.62. In data set [2] (with baicalein 50 mg/kg), the CL/F was 233 mL/min/kg, the MRT last was found to be 1.9 ± 0.2 h, the time to peak (Tmax) is 1.5 h and the half-life is 1.6 ± 2.3 h. In addition, in data set [2] (with baicalein 50 mg/kg), the “AUC(0-t), free silybin” value is listed as 3534 ± 344 ng ⋅ h/ml; the “AUC(0-∞), free silybin” value came to 3599 ± 410 ng ⋅ h/ml; the “Cmax, free silybin” value is 1526 ± 126 ng/mL. In data set [2] (without baicalein), the CL/F is 417 mL/min/kg, the MRT last was 4.1 ± 0.9 h, the time of peak concentration (Tmax) was determined as 1.5 h and the half-life was 1.5 ± 0.2 h. Besides, the “AUC(0-∞), free silybin” value in data set [2] (without baicalein) is recorded as 2305 ± 1147 ng ⋅ h/ml. In data set [2] (setting [5]), the “AUC(0-t), free silybin” value is 3534 ± 344 ng ⋅ h/ml and the “Cmax, free silybin” value worked out at 1526 ± 126 ng/mL. Moreover, in data set [2] (setting [6]), the “AUC(0-t), free silybin” value is reported as 1292 ± 342 ng ⋅ h/ml and the “Cmax, free silybin” value is 507.7 ± 115 ng/mL.

`COc1cc([C@@H]2Oc3cc([C@H]4Oc5cc(O)cc(O)c5C(=O)[C@@H]4O)ccc3O[C@H]2CO)ccc1O` [silybin B]: the efflux ratio at 180 min, 10 μM in data set [1] (setting [3]) is 2.33 ± 0.09. In addition, the efflux ratio at 180 min, 10 μM in data set [1] (setting [4]) was 5.13. Further, in data set [2] (with baicalein 50 mg/kg), the CL/F is 298 mL/min/kg, the MRT last amounted to 2.1 ± 0.3 h, the time of peak concentration (Tmax) turned out to be 1.29 ± 0.51 h and the half-life was 1.34 ± 0.53 h. Further, the “AUC(0-∞), free silybin” value in data set [2] (with baicalein 50 mg/kg) is listed as 1812 ± 223 ng ⋅ h/ml. Further, in data set [2] (without baicalein), the CL/F was 450 mL/min/kg, the MRT last was determined as 4.21 ± 0.98 h, the Tmax is 1.5 h and the half-life is 1.7 ± 0.3 h. Also, in data set [2] (without baicalein), the “AUC(0-t), free silybin” value is 1195 ± 302 ng ⋅ h/ml; the “AUC(0-∞), free silybin” value came out at 2087 ± 932 ng ⋅ h/ml; the “Cmax, free silybin” value was 413 ± 69 ng/mL. In addition, in data set [2] (setting [7]), the “AUC(0-t), free silybin” value came out at 1808 ± 226 ng ⋅ h/ml and the “Cmax, free silybin” value came out at 915.2 ± 151 ng/mL. Further, the “Cmax, free silybin” value in data set [2] (without baicalein, listed as SBB) is 412.7 ± 69.3 ng/mL.

The values above are taken from publication PMC6212553, “Baicalein Enhances the Oral Bioavailability and Hepatoprotective Effects of Silybin Through the Inhibition of Efflux Transporters BCRP and MRP2” (Frontiers in Pharmacology, 2018).
